The test system of assay [1] is Aβ40 in conditioned medium of cells stably expressing Amyloid Precursor Protein (APP). The experiment in a line: In vitro BACE cell-based assay (Aβ40 in conditioned medium, sandwich ELISA). To be noted: read-out: HEK cell assay. Put shortly:
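Step two: 10-point compound titration added, starting 100 μM or 10 μM, 0.1% DMSO. Step three: medium Aβ40 measured by ELISA, capture 3 h and detection 2 h at 4° C, TRF read.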
(In general: An ELISA detects its analyte on a solid surface through an enzyme-linked reagent.)

In assay [2] the target is Beta Secretase enzyme (BACE) (Homo sapiens, UniProt P56817). The experiment in a line: In vitro enzymatic BACE FRET (fluorescence resonance energy transfer) assay. The format is biochemical. The note with it: average IC50, enzyme assay; read-out: BACE 1 FRET assay. In outline:
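Run in 0.05 M acetate pH 4.2 with 10% DMSO final and 100 uM genapol; started by adding 50 nM FRET peptide substrate (fluorophore and quencher flanking the cleavage site), incubated one hour, then stopped with Tris to neutral pH before reading fluorescence.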

Setting [3] is: Homo sapiens, HEK293, average IC50, HEK cells.
The mark [4] stands for this setting: Homo sapiens, HEK293, average IC50.

Read-outs that look alike come from different tables or passages of the source.

In patent publication US8883782B2, “Spiro-tetracyclic ring compounds as beta-secretase modulators and methods of use” (Amgen Inc., priority 2010, dated 2014) one finds IC50 data, which are given here for 27 compounds.

Chain of Beta Secretase enzyme (BACE) (P56817 46-501, species assumed): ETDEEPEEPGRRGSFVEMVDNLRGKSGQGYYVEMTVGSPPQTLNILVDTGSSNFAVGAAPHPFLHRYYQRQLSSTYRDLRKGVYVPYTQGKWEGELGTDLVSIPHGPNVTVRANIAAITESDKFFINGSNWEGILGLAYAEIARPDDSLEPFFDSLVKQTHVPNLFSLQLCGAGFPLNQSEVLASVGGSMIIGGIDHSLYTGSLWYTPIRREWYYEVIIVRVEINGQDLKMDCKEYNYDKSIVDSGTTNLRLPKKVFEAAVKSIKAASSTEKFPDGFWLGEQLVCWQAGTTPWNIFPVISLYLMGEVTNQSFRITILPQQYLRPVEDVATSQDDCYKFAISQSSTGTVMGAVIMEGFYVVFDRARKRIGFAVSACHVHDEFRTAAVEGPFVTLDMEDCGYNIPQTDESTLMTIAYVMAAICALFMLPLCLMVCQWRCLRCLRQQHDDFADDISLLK

For the compound `NC1=N[C@@]2(CO1)c1cc(-c3c(F)ccnc3F)ccc1Oc1cnc([C@@H]3CCCCO3)cc12` [Example 915, (5S)-7-(2,4-difluoro-3-pyridinyl)-3-((2S)-tetrahydro-2H-pyran-2-yl)spiro[chromeno[2,3-c]pyridine-5,4′-[1,3]oxazol]-2′-amine], the figures for the IC50 in assay [1] (setting [3]) and in assay [2] were 23 nM and 2.5 nM, respectively.

As to `CCn1cc(-c2cccc(-c3ccc4c(c3)[C@@]3(COC(N)=N3)c3cc(C5=CCOCC5)ncc3O4)c2)cn1` [Example 244, (5S)-3-(3,6-dihydro-2H-pyran-4-yl)-7-(3-(1-ethyl-1H-pyrazol-4-yl)phenyl)spiro[chromeno[2,3-c]pyridine-5,4′-[1,3]oxazol]-2′-amine], the figures for the IC50 in assay [1] (setting [4]) and in assay [2] were 326 nM and 53.7 nM, respectively.

In the case of `Cn1cc(-c2cc(F)c3c(c2)[C@]2(COC(N)=N2)c2cc(-c4cccc(C#N)c4)ccc2O3)cn1` [Example 563, 3-((4S)-2-amino-5′-fluoro-7′-(1-methyl-1H-pyrazol-4-yl)spiro[1,3-oxazole-4,9′-xanthen]-2′-yl)benzonitrile], the values for the IC50 in assay [1] (setting [3]) and in assay [2] were 12.4 nM and 1.3 nM, respectively.

For the compound `CN(C)c1cc2c(cn1)Oc1ccc(-c3cccnc3F)cc1C21COC(N)=N1` (racemic) [Example 706], the IC50 in assay [1] (setting [3]) was determined as 205 nM; in assay [2], 22.4 nM.

For `NC1=N[C@@]2(CO1)c1cc(-c3cccnc3)ccc1Oc1c(F)cc(-n3cccn3)cc12` [Example 684, (4S)-4′-fluoro-2′-(1H-pyrazol-1-yl)-7′-(3-pyridyl)spiro[1,3-oxazole-4,9′-xanthen]-2-amine], the values for the IC50 in assay [1] (setting [3]) and in assay [2] were 34 nM and 3.8 nM, respectively.

With `CC1(COc2ccc3c(c2)[C@@]2(COC(N)=N2)c2cc(C4=CCOCC4)cc(F)c2O3)COC1` [Example 438, (4S)-2′-(3,6-dihydro-2H-pyran-4-yl)-4′-fluoro-7′-((3-methyl-3-oxetanyl)methoxy)spiro[1,3-oxazole-4,9′-xanthen]-2-amine], the values for the IC50 in assay [1] (setting [3]) and in assay [2] were 34.6 nM and 9 nM, respectively.

On to `CC1(C)CC(c2cc(F)c3c(c2)[C@]2(COC(N)=N2)c2cc(-c4cccnc4F)ccc2O3)=CC(=O)O1` [Example 804, 4-((4S)-2-amino-4′-fluoro-7′-(2-fluoro-3-pyridinyl)spiro[1,3-oxazole-4,9′-xanthen]-2′-yl)-6,6-dimethyl-5,6-dihydro-2H-pyran-2-one], for which the figures for the IC50 in assay [1] (setting [4]) and in assay [2] were 33 nM and 0.8 nM, respectively.

As for `CC1(C)CC(c2cnc3c(c2)[C@@]2(COC(N)=N2)c2c(ccc(-c4cccnc4F)c2F)O3)=CCO1` [Example 351, (5S)-3-(2,2-dimethyl-3,6-dihydro-2H-pyran-4-yl)-6-fluoro-7-(2-fluoro-3-pyridinyl)spiro[chromeno[2,3-b]pyridine-5,4′-[1,3]oxazol]-2′-amine], the IC50 in assay [1] (setting [4]) was found to be 854 nM; in assay [2] it was 389 nM.

On to `NC1=N[C@@]2(CO1)c1cc(-c3cccnc3F)ccc1Oc1cnc(-c3cncnc3)cc12` [Example 571, (5S)-7-(2-fluoro-3-pyridinyl)-3-(5-pyrimidinyl)spiro[chromeno[2,3-c]pyridine-5,4′-[1,3]oxazol]-2′-amine], for which the IC50 in assay [1] (setting [3]) was 110 nM; in assay [2], 6.6 nM.

As to `NC1=N[C@@]2(CO1)c1cc(-c3cccnc3F)ccc1Oc1c2cc(Br)nc1F` [Example 734, (5S)-3-bromo-1-fluoro-7-(2-fluoro-3-pyridinyl)spiro[chromeno[2,3-c]pyridine-5,4′-[1,3]oxazol]-2′-amine], the values for the IC50 in assay [1] (setting [4]) and in assay [2] were 2260 nM and 7.8 nM, respectively.

On to `NC1=N[C@@]2(CS1)c1cc(-c3cccnc3F)ccc1Oc1c(F)cc(N3CC4CC3CO4)cc12` (stereo partly drawn) [Example 1078, (4S)-4′-fluoro-7′-(2-fluoro-3-pyridinyl)-2′-(2-oxa-5-azabicyclo[2.2.1]hept-5-yl)spiro[1,3-thiazole-4,9′-xanthen]-2-amine], for which the IC50 in assay [1] (setting [4]) was determined as 5 nM; in assay [2], 0.4 nM.

As for `CC#Cc1cnc(F)c(-c2ccc3c(c2)[C@@]2(COC(N)=N2)c2cc(-c4cnn(C)c4)cnc2O3)c1` [Example 954, (5S)-7-(2-fluoro-5-(1-propyn-1-yl)-3-pyridinyl)-3-(1-methyl-1H-pyrazol-4-yl)spiro[chromeno[2,3-b]pyridine-5,4′-[1,3]oxazol]-2′-amine], the IC50 in assay [1] (setting [3]) turned out to be 3 nM; in assay [2], 0.3 nM.

Take `COc1cc(F)c2c(c1)[C@]1(COC(N)=N1)c1cc(-c3cncc(C(F)(F)F)c3)ccc1O2` [Example 1073, (4S)-4′-fluoro-2′-methoxy-7′-(5-(trifluoromethyl)-3-pyridinyl)spiro[1,3-oxazole-4,9′-xanthen]-2-amine]: the IC50 in assay [1] (setting [4]) amounted to 194 nM; in assay [2], 61.4 nM.

For the compound `Cn1ccc(-c2cnc3c(c2)[C@]2(COC(N)=N2)c2cc(C#CC(C)(C)C)ccc2O3)n1` [Example 180, (5S)-7-(3,3-dimethyl-1-butyn-1-yl)-3-(1-methyl-1H-pyrazol-3-yl)spiro[chromeno[2,3-b]pyridine-5,4′-[1,3]oxazol]-2′-amine], the IC50 in assay [1] (setting [4]) came out at 165 nM; in assay [2] it was 49.5 nM.

For `CC1(C#Cc2cnc3c(c2)[C@]2(COC(N)=N2)c2cc(-c4cnccn4)ccc2O3)COC1` [Example 168, (5S)-3-((3-methyl-3-oxetanyl)ethynyl)-7-(2-pyrazinyl)spiro[chromeno[2,3-b]pyridine-5,4′-[1,3]oxazol]-2′-amine], the IC50 in assay [1] (setting [4]) turned out to be 14.5 nM; in assay [2], 3.3 nM.

For the compound `NC1=N[C@@]2(CO1)c1cc(-c3cncnc3)c(F)cc1Oc1c(F)cc(C3CCOCC3)cc12` [Example 1040, (4S)-3′,5′-difluoro-2′-(5-pyrimidinyl)-7′-(tetrahydro-2H-pyran-4-yl)spiro[1,3-oxazole-4,9′-xanthen]-2-amine], the IC50 came to 30 nM in assay [1] (setting [4]) and 1.5 nM in assay [2].

Consider `NC1=N[C@]2(CO1)c1cc(-c3cccnc3F)ccc1Oc1nc(F)c(I)cc12` [Example 899, (5R)-2-fluoro-7-(2-fluoro-3-pyridinyl)-3-iodospiro[chromeno[2,3-b]pyridine-5,4′-[1,3]oxazol]-2′-amine], for which the IC50 in assay [1] (setting [3]) was no less than 10000 nM; in assay [2], 40000 nM.

As for `NC1=N[C@@]2(CO1)c1cc(-c3ccc(F)nc3)ccc1Oc1cnc(C3CCOCC3)cc12` [Example 363, (5S)-7-(6-fluoro-3-pyridinyl)-3-(tetrahydro-2H-pyran-4-yl)spiro[chromeno[2,3-c]pyridine-5,4′-[1,3]oxazol]-2′-amine], the IC50 is 270 nM in assay [1] (setting [4]) and 33.7 nM in assay [2].

For the compound `NC1=N[C@@]2(CO1)c1cc(-c3cccnc3F)ccc1Oc1c(F)cc([C@@H]3CCCOC3)cc12` [Example 286, (4S)-4′-fluoro-7′-(2-fluoro-3-pyridinyl)-2′-((3S)-tetrahydro-2H-pyran-3-yl)spiro[1,3-oxazole-4,9′-xanthen]-2-amine], the values for the IC50 in assay [1] (setting [4]) and in assay [2] were 15.8 nM and 1.9 nM, respectively.

As to `N#Cc1cc(-c2ccc3c(c2)[C@@]2(CSC(N)=N2)c2cc(C4=CCCOC4)cnc2O3)ccc1F` [Example 783, 5-((5S)-2′-amino-3-(5,6-dihydro-2H-pyran-3-yl)spiro[chromeno[2,3-b]pyridine-5,4′-[1,3]thiazol]-7-yl)-2-fluorobenzonitrile], the IC50 in assay [1] (setting [4]) turned out to be 10 nM; in assay [2] it was 0.6 nM.

In the case of `NC1=N[C@@]2(CO1)c1cc(OCc3cccc(Br)c3)ccc1Oc1ncc(-c3cccnc3)cc12` [Example 979, (5S)-7-((3-bromobenzyl)oxy)-3-(3-pyridinyl)spiro[chromeno[2,3-b]pyridine-5,4′-[1,3]oxazol]-2′-amine], the IC50 came to 23 nM in assay [1] (setting [4]) and 0.6 nM in assay [2].

As to `CC1(COc2cc(F)c3c(c2)[C@]2(COC(N)=N2)c2cc(-c4cncc(F)c4)ccc2O3)COC1` [Example 273, (4S)-4′-fluoro-7′-(5-fluoro-3-pyridinyl)-2′-((3-methyl-3-oxetanyl)methoxy)spiro[1,3-oxazole-4,9′-xanthen]-2-amine], the IC50 in assay [1] (setting [4]) was 3.1 nM; in assay [2], 0.7 nM.

In the case of `COc1cncc(-c2ccc3c(c2)[C@@]2(COC(N)=N2)c2cc(C#CC4(C)COC4)cnc2O3)c1` [Example 461, (5S)-7-(5-methoxy-3-pyridinyl)-3-((3-methyl-3-oxetanyl)ethynyl)spiro[chromeno[2,3-b]pyridine-5,4′-[1,3]oxazol]-2′-amine], the IC50 in assay [1] (setting [3]) was determined as 6.3 nM; in assay [2], 1.8 nM.

With `NC1=N[C@@]2(CO1)c1cc(-c3cccnc3F)ccc1Oc1c(F)cc(N3CC4(COC4)C3)cc12` [Example 1087, (4S)-4′-fluoro-7′-(2-fluoro-3-pyridinyl)-2′-(2-oxa-6-azaspiro[3.3]hept-6-yl)spiro[1,3-oxazole-4,9′-xanthen]-2-amine], the IC50 in assay [1] (setting [4]) and in assay [2] was 2 nM throughout.

In the case of `CC1(C)C[C@@H](c2cnc3c(c2)[C@]2(COC(N)=N2)c2cc(-c4cccc(Cl)c4)ccc2O3)CCO1` [Example 465, (5S)-7-(3-chlorophenyl)-3-((4S)-2,2-dimethyltetrahydro-2H-pyran-4-yl)spiro[chromeno[2,3-b]pyridine-5,4′-[1,3]oxazol]-2′-amine], the IC50 in assay [1] (setting [3]) came out at 11.1 nM; in assay [2], 1.7 nM.

As to `Cc1ccn(-c2cnc3c(c2)[C@]2(COC(N)=N2)c2cc(-c4cccnc4)ccc2O3)n1` [Example 1022, (5S)-3-(3-methyl-1H-pyrazol-1-yl)-7-(3-pyridinyl)spiro[chromeno[2,3-b]pyridine-5,4′-[1,3]oxazol]-2′-amine], the IC50 is 106 nM in assay [1] (setting [4]) and 7.2 nM in assay [2].

For `NC1=N[C@@]2(CS1)c1cc(-c3cccnc3F)ccc1Oc1cnc(C3=CCOCC3)cc12` [Example 614, (5S)-3-(3,6-dihydro-2H-pyran-4-yl)-7-(2-fluoro-3-pyridinyl)spiro[chromeno[2,3-c]pyridine-5,4′-[1,3]thiazol]-2′-amine], the IC50 in assay [1] (average IC50, HEK cells) was determined as 5 nM; in assay [2], 0.3 nM.
